# US5840684A, “Glycopeptide antibiotic derivatives” (Eli Lilly and Company, priority 1995, dated 1998)
# What was measured:
# [1] = tested on: Staphylococcus aureus S13E; type: cell-based
# Description: (§1) The MIC's were determined using a standard broth micro-dilution assay.
# [2] = tested on: Staphylococcus aureus SA1199B; type: cell-based
# Description: as §1
# [3] = tested on: vancomycin-susceptible enterococci; assay: broth micro-dilution, mean geometric MIC; type: cell-based, Enterococcus faecium and Enterococcus faecalis; conditions: enterococci, 24-hour incubation
# Escherichia coli EC14 = assay: broth micro-dilution MIC; type: cell-based
# Description: (§2) The formula I compounds have in vitro and in vivo activity against Gram-positive pathogenic bacteria. The MIC's were determined using a standard broth micro-dilution assay.
# [4] = tested on: Streptococcus pneumoniae P1; assay: broth micro-dilution MIC; type: cell-based
# Description: as §2
# Entercoccus faecium 2041 = assay: broth micro-dilution MIC; type: cell-based; conditions: Entercoccus faecium 2041
# Description: as §2
# [5] = tested on: Staphylococcus haemolyticus 105; assay: broth micro-dilution MIC; type: cell-based
# Description: as §2
# [6] = tested on: Haemophilus influenzae RD; assay: broth micro-dilution MIC; type: cell-based; conditions: Haemophilus influenzae RD
# Description: as §2
# [7] = tested on: Enterococcus gallinarum 245; assay: broth micro-dilution MIC; type: cell-based; conditions: Enterococcus gallinarum 245
# Description: as §2
# [8] = tested on: Staphylococcus haemolyticus 415; assay: broth micro-dilution MIC; type: cell-based
# Description: as §2
# [9] = tested on: Staphylococcus epidermidis 270; assay: broth micro-dilution MIC; type: cell-based
# Description: as §2
# Entercoccus faecium 180 = assay: broth micro-dilution MIC; type: cell-based; conditions: Entercoccus faecium 180
# Description: as §2
# [10] = tested on: vancomycin-resistant enterococci; assay: broth micro-dilution, mean geometric MIC; type: cell-based, Enterococcus faecium and Enterococcus faecalis; conditions: enterococci, 24-hour incubation
# [11] = tested on: Staphylococcus aureus X400; assay: broth micro-dilution MIC; type: cell-based
# Description: as §1
# [12] = tested on: Staphylococcus aureus SA1199A; assay: broth micro-dilution MIC; type: cell-based
# Description: as §1
# [13] = tested on: Staphylococcus aureus 446; assay: broth micro-dilution MIC; type: cell-based
# Description: as §1
# [14] = tested on: Staphylococcus aureus SA1199; assay: broth micro-dilution MIC; type: cell-based
# Description: as §1
# [15] = tested on: Staphylococcus aureus X778; assay: broth micro-dilution MIC; type: cell-based
# Description: as §1
# [16] = tested on: Staphylococcus aureus 489; assay: broth micro-dilution MIC; type: cell-based
# Description: as §1
# [17] = tested on: Staphylococcus aureus 447; assay: broth micro-dilution MIC; type: cell-based
# Description: as §1
# Entercoccus faecium 276 = assay: broth micro-dilution MIC; type: cell-based
# Description: as §1
# [18] = tested on: Staphylococcus aureus 491; assay: broth micro-dilution MIC; type: cell-based
# Description: as §1
# [19] = tested on: Entercoccus faecium 180-1; assay: broth micro-dilution MIC; type: cell-based
# Description: as §1
# [20] = tested on: Streptococcus pyogenes C203; assay: broth micro-dilution MIC; type: cell-based
# Description: as §1
SMILES,MIC [1] [µg/mL],MIC [2] [µg/mL],"mean geometric MIC, Vancomycin Sensitive Strains [3] [µg/mL]",MIC (Escherichia coli EC14) [µg/mL],MIC [4] [µg/mL],MIC (Entercoccus faecium 2041) [µg/mL],MIC [5] [µg/mL],MIC [6] [µg/mL],MIC [7] [µg/mL],MIC [8] [µg/mL],MIC [9] [µg/mL],MIC (Entercoccus faecium 180) [µg/mL],"mean geometric MIC, Vancomycin Resistant Strains [10] [µg/mL]",MIC [11] [µg/mL],MIC [12] [µg/mL],MIC [13] [µg/mL],MIC [14] [µg/mL],MIC [15] [µg/mL],MIC [16] [µg/mL],MIC [17] [µg/mL],other results
CNC(CC(C)C)C(=O)NC1C(=O)NC(CC(N)=O)C(=O)NC2C(=O)NC3C(=O)NC(C(=O)NC(C(=O)O)c4cc(O)cc(O)c4-c4cc3ccc4O)C(OC3CC(C)(NCc4cnc5ccccc5c4)C(O)C(C)O3)c3ccc(c(Cl)c3)Oc3cc2cc(c3OC2OC(CO)C(O)C(O)C2OC2CC(C)(NCc3cnc4ccccc4c3)C(O)C(C)O2)Oc2ccc(cc2Cl)C1O (stereo not drawn) [Compound 275],0.125,0.125,0.33,> 64,≤ 0.06,≤ 0.06,1,> 64,4,4,1,1,16,0.25,≤ 0.06,0.25,≤ 0.06,≤ 0.06,≤ 0.06,1,MIC (Entercoccus faecium 276): ≤ 0.06 µg/mL; MIC [18]: 1 µg/mL; MIC [19]: ≤ 0.06 µg/mL; MIC [20]: ≤ 0.06 µg/mL
CC(C)CC(C(=O)NC1C(=O)NC(CC(N)=O)C(=O)NC2C(=O)NC3C(=O)NC(C(=O)NC(C(=O)O)c4cc(O)cc(O)c4-c4cc3ccc4O)C(OC3CC(C)(N)C(O)C(C)O3)c3ccc(c(Cl)c3)Oc3cc2cc(c3OC2OC(CO)C(O)C(O)C2OC2CC(C)(NCc3cc4ccccc4s3)C(O)C(C)O2)Oc2ccc(cc2Cl)C1O)N(C)Cc1cc2ccccc2s1 (stereo not drawn) [Compound 276],2,1,1.3,> 64,≤ 0.06,1,4,> 64,4,4,4,4,23,2,0.25,1,1,1,1,4,MIC (Entercoccus faecium 276): 1 µg/mL; MIC [18]: 1 µg/mL; MIC [19]: 0.25 µg/mL; MIC [20]: ≤ 0.06 µg/mL
COc1ccc2nc(-c3ccccc3)cc(CNC3(C)CC(OC4C(Oc5c6cc7cc5Oc5ccc(cc5Cl)C(OC5CC(C)(N)C(O)C(C)O5)C5NC(=O)C(NC(=O)C7NC(=O)C(CC(N)=O)NC(=O)C(NC(=O)C(CC(C)C)N(C)Cc7cc(-c8ccccc8)nc8ccc(OC)cc78)C(O)c7ccc(c(Cl)c7)O6)c6ccc(O)c(c6)-c6c(O)cc(O)cc6C(C(=O)O)NC5=O)OC(CO)C(O)C4O)OC(C)C3O)c2c1 (stereo not drawn) [Compound 277],16,16,1.1,> 64,≤ 0.06,2,> 64,> 64,> 64,> 64,16,2,32,32,1,64,16,32,16,> 64,MIC (Entercoccus faecium 276): 1 µg/mL; MIC [18]: 8 µg/mL; MIC [19]: 0.5 µg/mL; MIC [20]: ≤ 0.06 µg/mL
CNC(CC(C)C)C(=O)NC1C(=O)NC(CC(N)=O)C(=O)NC2C(=O)NC3C(=O)NC(C(=O)NC(C(=O)O)c4cc(O)cc(O)c4-c4cc3ccc4O)C(OC3CC(C)(NCc4ccc(SC)cc4)C(O)C(C)O3)c3ccc(c(Cl)c3)Oc3cc2cc(c3OC2OC(CO)C(O)C(O)C2OC2CC(C)(NCc3ccc(SC)cc3)C(O)C(C)O2)Oc2ccc(cc2Cl)C1O (stereo not drawn) [Compound 278],1,0.5,0.29,> 64,≤ 0.06,0.125,0.5,> 64,2,2,1,1,8,0.25,1,1,0.25,0.5,0.5,2,MIC (Entercoccus faecium 276): 0.25 µg/mL; MIC [18]: 1 µg/mL; MIC [19]: ≤ 0.06 µg/mL; MIC [20]: ≤ 0.06 µg/mL
CC(C)CC(C(=O)NC1C(=O)NC(CC(N)=O)C(=O)NC2C(=O)NC3C(=O)NC(C(=O)NC(C(=O)O)c4cc(O)cc(O)c4-c4cc3ccc4O)C(OC3CC(C)(N)C(O)C(C)O3)c3ccc(c(Cl)c3)Oc3cc2cc(c3OC2OC(CO)C(O)C(O)C2OC2CC(C)(NCc3cccnc3)C(O)C(C)O2)Oc2ccc(cc2Cl)C1O)N(C)Cc1cccnc1 (stereo not drawn) [Compound 280],2,0.5,7,> 64,0.125,1,> 64,> 64,32,32,8,32,> 128,1,0.5,2,2,0.5,1,8,MIC (Entercoccus faecium 276): 0.5 µg/mL; MIC [18]: 2 µg/mL; MIC [19]: 0.25 µg/mL; MIC [20]: 0.125 µg/mL
